Values quoted from earlier work, collected in US20110212944A1, “2-OXO-1-PYRROLIDINE DERIVATIVES” (priority 2008, published 2011).

CCC[C@@H]1CC(=O)N([C@@H](CC)C(N)=O)C1 [brivaracetam, 2(S)-[2-oxo-4(R)-propylpyrrolidin-1-yl]butyramide]
time after drug administration within which adverse events subsided (after drug administration): ≤ 24 h | severity of treatment emergent adverse events (primarily CNS-related events (dizziness, somnolence, headache etc.)): mild to moderate
